The test system of one data set is SKOV-3 (OVARIAN). Nature of the data set: In vitro cytotoxicity GI50, Example 48. It counts as cell-based. The following applies: Homo sapiens, SK-OV-3, Alamar Blue or Sulfarhodamine B. In general terms: The colour change of resazurin is a common sign of viable cells or microbes.
Data set [1] concerns HCT-116 (COLON). The experiment in a line: In vitro cytotoxicity GI50, Example 48. It counts as cell-based. The note with it: Alamar Blue or Sulfarhodamine B. As for the experimental part:
The study was performed using either Alamar Blue or Sulfarhodamine B assays.

Another data set relates to H460 (NSCLC). The experiment in a line: In vitro cytotoxicity GI50, Example 48. It counts as cell-based.
The conditions of data set [2]: rat, in vivo, iv; cited from earlier work.
The test system of a further data set is HT-29 human tumor cells. Nature of the data set: HT-29 human tumor xenograft. It counts as in vivo, Athymic mice. The following applies: for Number of animals with no measurable tumor on Day 55 / Tumor Growth Delay (T-C) / Tumor Growth Inhibition (% T/C): 15 mg/kg i.v.; for Mice with no measurable tumor: fifty-five days after dose initiation. On the procedure: HT-29 Human Tumor Xenograft. Athymic mice were subcutaneously implanted with 30-40 mg tumor fragments using 12-gauge trocar needles. A sufficient number of mice were implanted with fragments so tumors in narrow weight range (100-200 mg) were selected for the trial on staging day (SD). The animals selected with tumors in the proper size range were randomized into six groups of 10 animals and intravenously administered the following test compounds:
In both xenograph studies, animal body weights and tumors were measured twice weekly following the initiation of dosing. The tumor measurements were performed using a caliper (millimeters); the tumor volume was calculated based on the formula: (Length×width^2)/2=Volume(mm^3).
Background: In xenograft studies the graft and the host belong to different species.

The nature of data set [3]: Solubility to saturation in various solvents, supernatant analysed by HPLC. It counts as physicochemical. On the procedure:
Compounds were dissolved in each solvent under constant stirring and temperature to saturation. The resulting solutions were centrifuged and the supernatant was analyzed by high performance liquid chromatography (HPLC).

A short description of data set [4]: Pharmacokinetics after intravenous bolus in rats. It counts as in vivo. The following applies: Sprague-Dawley, rat, intravenous bolus of emulsion, approximately 14 mg/kg, plasma; for half-life: read-out: t1/2 (elimination) (converted). As for the experimental part:
Blood samples were collected for up to 120 hours post dose via the jugular vein. […] A noncompartmental analysis was carried out using WinNonlin (v 4.1).

The nature of data set [5]: In vitro stability of the lactone form in the presence of human serum albumin. It counts as in vitro ADME. The note with it: saline buffered solution 10 mM pH 7.4, 4% human serum albumin, 37° C.; emulsions vs camptothecin in DMSO; FIG. 12. An excerpt:
High performance liquid chromatography with fluorescence detection was used to analyze the decrease in the concentration of the lactone form over time.

In the next data set the test system is HT29 (COLON). The experiment in a line: In vitro cytotoxicity GI50, Example 17. It counts as cell-based. The note with it: Homo sapiens. As for the experimental part: (§1) The cells were in contact with varying concentrations of the test article for a period of 48 hours. At the end of 48 hours, staining with ALAMAR BLUE was performed to determine the number of viable cells and calculate the degree of cellular growth inhibition as compared to a control group.

The next data set deals with NCI-H460 (NSCLC). The experiment in a line: In vitro cytotoxicity GI50, Example 17. It counts as cell-based. The following applies: Homo sapiens. As for the experimental part: as §1
Data set [6] concerns HCT-116 (COLON). Nature of the data set: In vitro cytotoxicity GI50, Example 17. It counts as cell-based. The note with it: Homo sapiens. On the procedure: as §1
The next data set relates to HCT-15 (COLON). The experiment in a line: In vitro cytotoxicity GI50, Example 17. It counts as cell-based. The following applies: Homo sapiens. As for the experimental part:
as §1

Another data set deals with OVCAR-3 (OVARIAN). The experiment in a line: In vitro cytotoxicity GI50, Example 17. The note with it: emulsion formulations, 48 hours, ALAMAR BLUE. It counts as cell-based. As for the experimental part: as §1
The test system of the next data set is MCF-7 (BREAST). Nature of the data set: In vitro cytotoxicity GI50, Example 17. It counts as cell-based. The following applies: Homo sapiens, MCF7, emulsion formulations, 48 hours, ALAMAR BLUE. As for the experimental part: as §1

Where a name gives a salt, the structure may show the parent alone. Read-outs that look alike come from different tables or passages of the source. Marks after values point to notes of the source that are not given here. Where only a bound is given, the exact number is not on record here.

What is called GI50 is the concentration giving 50% growth inhibition. The compound `CCc1c2c(nc3ccc(OC(=O)CC(C)CC(=O)Oc4cc(C)c5c(c4)CC[C@@](C)(CCC[C@H](C)CCC[C@H](C)CCCC(C)C)O5)cc13)-c1cc3c(c(=O)n1C2)COC(=O)[C@]3(O)CC` (stereo partly drawn) [δ-tocopherol-3-methylglutarate-SN38, δ-Tocopherol-3-methylglutarate-7-ethyl-10-hydroxycamptothecin] displayed a GI50 with SKOV-3 (OVARIAN) of 1.48 nM.

As for `CCc1c2c(nc3ccc(OC(=O)CCC(=O)Oc4c(C)c(C)c5c(c4C)CCC(C)(CCCC(C)CCCC(C)CCCC(C)C)O5)cc13)-c1cc3c(c(=O)n1C2)COC(=O)C3(CC)OC(=O)CCC(=O)Oc1c(C)c(C)c2c(c1C)CCC(C)(CCCC(C)CCCC(C)CCCC(C)C)O2` (stereo not drawn) [10,20-diVESA-SN38, 10,20-Di(tocopherol succinate) 7-Ethyl-10-hydroxycamptothecin], the GI50 is 9330 nM with HCT-116 (COLON) [1] (HCT-116) and 4060 nM in the data set on H460 (NSCLC) (H460, Alamar Blue or Sulfarhodamine B, read-out: GI50).

Turning to `CCc1c2c(nc3ccc(OC(=O)CCC(=O)Oc4c(C)c(C)c5c(c4C)CC[C@@](C)(CCC[C@H](C)CCC[C@H](C)CCCC(C)C)O5)cc13)-c1cc3c(c(=O)n1C2)COC(=O)[C@@]3(CC)OC(C)=O` [20-acetyl-10-VESA-SN38, 20-Acetyl-10-(d-α-tocopherolsuccinate)-7-ethyl-10-hydroxycamptothecin], the GI50 in the data set on HCT-116 (COLON) [1] (Homo sapiens, HCT-116) is 144 nM; in the data set on H460 (NSCLC) (Homo sapiens, NCI-H460), 1260 nM.

In turn, `CCc1c2c(nc3ccc(OC(=O)CCCC(=O)Oc4c(C)c(C)c5c(c4C)CC[C@@](C)(CCC[C@H](C)CCC[C@H](C)CCCC(C)C)O5)cc13)C1CC3C(COC(=O)[C@]3(O)CC)C(=O)N1C2` (stereo partly drawn) [d-α-Tocopherolglutarate-SN38, d-α-Tocopherolglutarate-7-ethyl-10-hydroxycamptothecin] yielded a GI50 with HCT-116 (COLON) [1] (Homo sapiens, HCT-116, HCT-116) of 190 nM.

One may read the MRT as the average time that molecules of a dose stay in the body. On to `CCc1c2c(nc3ccc(OC(=O)N4CCC(N5CCCCC5)CC4)cc13)-c1cc3c(c(=O)n1C2)COC(=O)[C@]3(O)CC` [Irinotecan, irinotecan hydrochloride], for which the MRT in data set [2] was 1.43 h.

In the data set with H460 (NSCLC) (Homo sapiens, NCI-H460), `CCc1c2c(nc3ccc(OC(C)=O)cc13)-c1cc3c(c(=O)n1C2)COC(=O)[C@@]3(CC)OC(=O)CCC(=O)Oc1c(C)c(C)c2c(c1C)CC[C@@](C)(CCC[C@H](C)CCC[C@H](C)CCCC(C)C)O2` [10-acetyl-20-VESA-SN38, 10-Acetyl-20-(d-α-tocopherolsuccinate)-7-ethyl-10-hydroxycamptothecin] displayed a concentration for 50% growth inhibition (GI50) of 3900 nM.

What is called clearance is the volume of plasma or blood freed of the substance per unit of time. Higher therefore signals a high capacity for elimination. As to `CC[C@@]1(OC(=O)CCC(=O)Oc2c(C)c(C)c3c(c2C)CC[C@@](C)(CCC[C@H](C)CCC[C@H](C)CCCC(C)C)O3)C(=O)OCc2c1cc1n(c2=O)Cc2cc3ccccc3nc2-1` [VESA-CPT, Butanedioic acid, (2R)-3,4-dihydro-2,5,7,8-tetramethyl-2-[(4R,8R)-4,8,12-trimethyltridecyl]-2H-1-benzopyran-6-yl (4S)-4-ethyl-3,4,12,14-tetrahydro-3,14-dioxo-1H-pyrano[3′,4′:6,7]indolizino[1,2-b]quinolin-4-yl ester], the “Number of animals with no measurable tumor on Day 55” value with HT-29 human tumor cells (q1dx5 (2 weeks)) and in the data set with HT-29 human tumor cells (q3dx10) was 0/10 each time. In addition, the “Tumor Growth Delay (T-C)” value in the data set on HT-29 human tumor cells (q1dx5 (2 weeks)) is reported as 8.5 days; with HT-29 human tumor cells (q3dx10), 0 days. The “Tumor Growth Inhibition (% T/C)” value with HT-29 human tumor cells (q1dx5 (2 weeks), Day 55) amounted to 79 % T/C. For the same compound, the Solubility in data set [3] (Acetonitrile, Room Temp.) was 49.6 mg/g; in [3] (Captex 300 EP, Room Temp.), 96.7 mg/g; in data set [3] (Chloroform, Room Temp.), above 372.5 mg/g; in data set [3] (DMSO, Room Temp.), above 255.5 mg/g; in data set [3] (Ethanol Denatured, Room Temp.), 57.1 mg/g; in data set [3] (Glycerin USP/EP/BP/JP, Room Temp.), 2.541 mg/g. The Solubility in data set [3] (Methanol, Room Temp.) was 14.4 mg/g; in [3] (Methylene dichloride, Room Temp.) it was above 336.5 mg/g; in [3] (PEG-400 NF, Room Temp.), 17.5 mg/g; in [3] (Propylene Glycol, USP, Room Temp.), 0.4633 mg/g; in [3] (Soybean Oil USP, Room Temp.), 45.2 mg/g; in data set [3] (TPGS, 65 °C), above 133.3 mg/g. The Solubility in data set [3] (Tween 80 NF, 65 → Room Temp.) was 48.3 mg/g; in data set [3] (Vitamin E USP/NF, 65 °C), above 288.3 mg/g. In addition, in data set [4] (in vivo), the mean residence time (MRT) was 9.4 h. This compound gave a clearance in data set [4] (in vivo) of 0.135 mL/min/kg. In addition, the half-life in data set [4] (in vivo) is 29.1 h. Moreover, the “Stability of the lactone form” value in data set [5] is reported as “greater than that of camptothecin”. Besides, the GI50 in the data set with HT29 (COLON) (HT-29, 48 h) was found to be 434 nM; with NCI-H460 (NSCLC) (NCI-H460, 48 h), 43 nM; with HCT-116 (COLON) [6] (HCT-116, 48 h), 449 nM; in the data set on HCT-15 (COLON) (HCT-15, 48 h), 20000 nM; in the data set with MCF-7 (BREAST) it was 325 nM. Further, the “GI50 (result in words)” value with OVCAR-3 (OVARIAN) is given as “Poor”.

For the compound `CCc1c2c(nc3ccc(OC(=O)CC(C)CC(=O)Oc4c(C)c(C)c5c(c4C)CC[C@@](C)(CCC[C@H](C)CCC[C@H](C)CCCC(C)C)O5)cc13)-c1cc3c(c(=O)n1C2)COC(=O)[C@]3(O)CC` (stereo partly drawn) [d-α-tocopherol-3-methylglutarate-SN38, d-α-Tocopherol-3-methylglutarate-7-ethyl-10-hydroxycamptothecin], the GI50 with HCT-116 (COLON) [1] (HCT-116) came out at 187 nM; in the data set on HCT-116 (COLON) [1] (Homo sapiens, HCT-116, HCT-116), 116 nM.

For the compound `CCc1c2c(nc3ccc(OC(=O)CCC(=O)Oc4c(C)c(C)c5c(c4C)CC[C@@](C)(CCC[C@H](C)CCC[C@H](C)CCCC(C)C)O5)cc13)-c1cc3c(c(=O)n1C2)COC(=O)[C@]3(O)CC` [VESA-SN38, Butanedioic acid, (4S)-4,11-diethyl-3,4,12,14-tetrahydro-4-hydroxy-3,14-dioxo-1H-pyrano[3′,4′:6,7]indolizino[1,2-b]quinolin-9-yl (2R)-3,4-dihydro-2,5,7,8-tetramethyl-2-[(4R,8R)-4,8,12-trimethyltridecyl]-2H-1-benzopyran-6-yl ester], the figures for the “Number of animals with no measurable tumor on Day 55” value in the data set with HT-29 human tumor cells (q1dx5 (2 weeks)) and in the data set on HT-29 human tumor cells (q3dx10) were 4/10 and 8/10, respectively. Also, the “Tumor Growth Delay (T-C)” value with HT-29 human tumor cells (q1dx5 (2 weeks)) and with HT-29 human tumor cells (q3dx10) was >28* days in each case. Also, the “Tumor Growth Inhibition (% T/C)” value in the data set with HT-29 human tumor cells (q1dx5 (2 weeks), Day 55) is listed as 4 % T/C; in the data set with HT-29 human tumor cells (q3dx10, Day 55), 2 % T/C. The “Mice with no measurable tumor” value with HT-29 human tumor cells (q1dx5) was 40%; in the data set with HT-29 human tumor cells (q3dx10), 80%. Also, the MRT in data set [4] is 5.15 h. This compound showed a clearance in data set [4] of 0.112 mL/min/kg. For the same compound, in data set [4], the half-life was 3.49 h. Moreover, the “Stability of the lactone form” value in data set [5] is on record as “greater than that of camptothecin”. The GI50 was determined as 91 nM in the data set with HT29 (COLON) (HT-29, HT29, emulsion formulations, 48 hours, ALAMAR BLUE, read-out: GI50); 4 nM in the data set with NCI-H460 (NSCLC) (NCI-H460, emulsion formulations, 48 hours, ALAMAR BLUE, read-out: GI50); 119 nM with HCT-116 (COLON) [6] (HCT-116, emulsion formulations, 48 hours, ALAMAR BLUE, read-out: GI50); 99 nM in the data set with HCT-15 (COLON) (HCT-15, emulsion formulations, 48 hours, ALAMAR BLUE, read-out: GI50); 83 nM in the data set on OVCAR-3 (OVARIAN) (Homo sapiens).

In turn, `CCc1c2c(nc3ccc(OC(=O)CCC(=O)Oc4cc(C)c5c(c4)CC[C@@](C)(CCC[C@H](C)CCC[C@H](C)CCCC(C)C)O5)cc13)-c1cc3c(c(=O)n1C2)COC(=O)[C@]3(O)CC` [δ-tocopherol succinate-SN38, δ-Tocopherolsuccinate-7-ethyl-10-hydroxycamptothecin] had a GI50 in the data set on SKOV-3 (OVARIAN) of 2.95 nM.

Source of the values: patent US20080045559A1, “TOCOPHEROL-MODIFIED THERAPEUTIC DRUG COMPOUNDS” (SONUS PHARMACEUTICALS, INC., priority 2003, published 2008).
